Measurements: ChEMBL document CHEMBL1201862, “PubChem BioAssay data set” (2004)
Where a name gives a salt, the structure may show the parent alone. Activity calls are given as the source filed them.

Columns and labels:
[1] = biological target: T1, Cysteine protease ATG4B (Homo sapiens, UniProt Q9Y4P1); format: functional;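 also: Fluorescence-based dose-response confirmation assay measuring inhibition of ATG4B activity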
T1 sequence (Q9Y4P1 whole entry): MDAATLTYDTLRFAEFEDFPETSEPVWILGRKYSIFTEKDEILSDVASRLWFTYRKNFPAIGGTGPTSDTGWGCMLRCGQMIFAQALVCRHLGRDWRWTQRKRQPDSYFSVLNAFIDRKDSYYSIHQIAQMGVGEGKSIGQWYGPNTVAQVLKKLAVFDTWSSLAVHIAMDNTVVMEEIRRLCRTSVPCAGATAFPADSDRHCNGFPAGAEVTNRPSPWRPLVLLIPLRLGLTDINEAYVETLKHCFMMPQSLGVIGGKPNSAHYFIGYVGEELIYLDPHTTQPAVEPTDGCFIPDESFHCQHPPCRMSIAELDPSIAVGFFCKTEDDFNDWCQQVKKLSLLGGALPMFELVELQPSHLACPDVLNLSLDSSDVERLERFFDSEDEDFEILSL

[2] = biological target: Phospholipase A2 (Homo sapiens, UniProt P04054); format: functional;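 also: confirmatory dose-response counterscreen on phospholipase A2, testing hits that came from an ultra-high-throughput screen for ATG4B inhibitors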
Phospholipase A2, sequence (P04054 whole entry): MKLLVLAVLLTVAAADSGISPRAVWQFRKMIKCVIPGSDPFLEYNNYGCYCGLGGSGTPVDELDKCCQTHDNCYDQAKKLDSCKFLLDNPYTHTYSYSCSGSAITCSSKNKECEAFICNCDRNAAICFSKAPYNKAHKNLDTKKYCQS

[3] = tested on: Vero; test: viability of Vero cells under compound – cytotoxicity control for flavivirus capping enzyme inhibitors (AID 588742); format: functional; conditions: Chlorocebus sabaeus
[4] = biological target: Genome polyprotein (dengue virus type 2, UniProt P29990); test: flavivirus cap methylation enzyme inhibition – biochemical, confirmation dose response, primary screen (AID 588689); format: functional
[5] = biological target: Dual specificity tyrosine-phosphorylation-regulated kinase 1A (Rattus norvegicus, UniProt Q63470); format: biochemical, Homo sapiens
[6] = biological target: T2, Long-chain-fatty-acid--AMP ligase FadD28 (Mycobacterium tuberculosis, UniProt P9WQ59); test: Fluorescence polarization aasay to screen for inhibitors that compete for the binding of FadD28 to a bisubstrate Measured in Biochemical System Using Plate Reader - 2147-01_Inhibitor_Dose_CherryPick_Activity.; format: functional, Mycobacterium tuberculosis H37Rv
T2 sequence (P9WQ59 whole entry): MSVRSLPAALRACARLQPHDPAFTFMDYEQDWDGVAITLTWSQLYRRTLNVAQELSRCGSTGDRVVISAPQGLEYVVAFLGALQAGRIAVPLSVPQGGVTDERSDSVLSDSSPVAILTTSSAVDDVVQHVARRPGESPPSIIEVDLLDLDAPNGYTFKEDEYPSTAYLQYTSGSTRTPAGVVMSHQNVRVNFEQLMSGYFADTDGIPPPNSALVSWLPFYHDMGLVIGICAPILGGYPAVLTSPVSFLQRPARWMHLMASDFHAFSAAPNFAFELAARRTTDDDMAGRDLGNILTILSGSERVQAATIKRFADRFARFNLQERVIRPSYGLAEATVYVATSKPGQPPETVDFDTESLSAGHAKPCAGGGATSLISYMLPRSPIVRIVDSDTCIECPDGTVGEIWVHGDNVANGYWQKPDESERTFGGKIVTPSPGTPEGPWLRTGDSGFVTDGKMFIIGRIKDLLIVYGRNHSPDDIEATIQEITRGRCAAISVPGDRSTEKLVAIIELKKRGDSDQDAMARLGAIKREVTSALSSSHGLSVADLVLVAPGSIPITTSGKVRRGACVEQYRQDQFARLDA

[7] = biological target: T3, Histone-lysine N-methyltransferase NSD2 (Homo sapiens, UniProt O96028); format: biochemical
T3 sequence (O96028 whole entry): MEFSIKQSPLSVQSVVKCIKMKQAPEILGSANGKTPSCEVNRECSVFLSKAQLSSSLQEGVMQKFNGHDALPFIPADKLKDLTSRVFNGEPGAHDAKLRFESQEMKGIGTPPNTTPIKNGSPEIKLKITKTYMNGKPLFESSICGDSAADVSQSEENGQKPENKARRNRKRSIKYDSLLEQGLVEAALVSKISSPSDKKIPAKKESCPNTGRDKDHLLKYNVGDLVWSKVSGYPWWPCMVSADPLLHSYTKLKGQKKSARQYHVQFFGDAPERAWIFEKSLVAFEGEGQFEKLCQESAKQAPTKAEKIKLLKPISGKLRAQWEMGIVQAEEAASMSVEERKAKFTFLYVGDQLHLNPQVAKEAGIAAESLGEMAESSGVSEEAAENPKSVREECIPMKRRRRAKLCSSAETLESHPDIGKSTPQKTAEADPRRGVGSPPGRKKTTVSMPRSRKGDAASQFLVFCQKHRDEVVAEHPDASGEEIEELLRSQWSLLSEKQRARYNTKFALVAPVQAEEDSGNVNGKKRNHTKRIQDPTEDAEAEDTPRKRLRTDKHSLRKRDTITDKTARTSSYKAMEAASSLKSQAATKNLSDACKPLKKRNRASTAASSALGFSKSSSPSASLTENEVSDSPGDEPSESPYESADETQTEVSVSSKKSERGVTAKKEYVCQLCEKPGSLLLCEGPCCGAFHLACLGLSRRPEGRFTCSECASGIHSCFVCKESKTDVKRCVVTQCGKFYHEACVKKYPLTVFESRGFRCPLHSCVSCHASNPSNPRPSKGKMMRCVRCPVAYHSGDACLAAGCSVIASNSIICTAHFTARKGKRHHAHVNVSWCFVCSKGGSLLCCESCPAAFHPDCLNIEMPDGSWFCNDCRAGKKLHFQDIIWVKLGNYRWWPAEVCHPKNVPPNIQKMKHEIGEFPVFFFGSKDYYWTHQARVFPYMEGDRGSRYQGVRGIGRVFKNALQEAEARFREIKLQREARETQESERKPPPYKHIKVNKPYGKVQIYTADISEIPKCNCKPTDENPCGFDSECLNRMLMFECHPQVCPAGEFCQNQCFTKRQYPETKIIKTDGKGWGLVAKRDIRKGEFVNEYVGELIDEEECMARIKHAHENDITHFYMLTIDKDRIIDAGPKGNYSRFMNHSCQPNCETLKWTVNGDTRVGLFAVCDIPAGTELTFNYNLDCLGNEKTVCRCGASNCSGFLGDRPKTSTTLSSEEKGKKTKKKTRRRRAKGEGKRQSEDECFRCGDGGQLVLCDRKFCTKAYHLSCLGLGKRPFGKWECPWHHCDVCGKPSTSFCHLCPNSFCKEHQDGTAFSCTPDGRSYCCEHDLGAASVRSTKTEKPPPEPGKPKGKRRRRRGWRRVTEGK

[8] = biological target: T4, Tyrosyl-DNA phosphodiesterase 2 (Homo sapiens, UniProt O95551); test: potency against TDP2 phosphodiesterase activity – biochemical, epi absorbance, IC50, dose response (AID 743297)
T4 sequence (O95551 whole entry): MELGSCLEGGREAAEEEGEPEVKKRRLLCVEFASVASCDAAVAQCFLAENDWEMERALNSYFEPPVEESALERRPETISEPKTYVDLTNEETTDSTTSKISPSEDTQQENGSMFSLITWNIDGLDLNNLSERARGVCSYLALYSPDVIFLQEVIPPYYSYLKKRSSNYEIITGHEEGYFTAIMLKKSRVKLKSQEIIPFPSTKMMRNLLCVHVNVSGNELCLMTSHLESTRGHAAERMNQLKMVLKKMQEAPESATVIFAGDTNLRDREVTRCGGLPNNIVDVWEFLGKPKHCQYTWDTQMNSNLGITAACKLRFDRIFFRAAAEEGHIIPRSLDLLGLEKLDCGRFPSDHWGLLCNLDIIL

[9] = viability loss in THP-1 monocytes – THP-1 cells, cytotoxicity control for Vif-APOBEC3G degradation inhibitor project, dose response (AID 1117359); format: functional; conditions: THP-1
[10] = biological target: Glutathione-S-transferase (Schistosoma japonicum, UniProt Q26513); test: GST-antibody interaction or FRET quenching – biochemical, TR-FRET, artefact control for Vif-APOBEC3G degradation inhibitor project, dose response (AID 1117362); format: functional
Glutathione-S-transferase, sequence (Q26513 whole entry): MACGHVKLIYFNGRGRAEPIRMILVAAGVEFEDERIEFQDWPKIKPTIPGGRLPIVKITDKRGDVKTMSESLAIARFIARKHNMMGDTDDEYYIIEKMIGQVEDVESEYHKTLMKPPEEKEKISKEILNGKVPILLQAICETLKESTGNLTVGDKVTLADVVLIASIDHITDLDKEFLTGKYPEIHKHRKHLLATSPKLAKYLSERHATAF

[11] = biological target: Aryl hydrocarbon receptor (Homo sapiens, UniProt P35869); test: Luminescence-based cell-based high throughput dose response assay for activators of the Aryl Hydrocarbon Receptor (AHR). [Related pubchem assays: 2796 (Primary screen (AHR activators in singlicate)), 2845 (Confirmation screen (AHR activators in triplicate)), 434939 (Counterscreen (PXR activators in triplicate)), 2804 (Summary (AHR activators))]; format: ADME
Aryl hydrocarbon receptor, sequence (P35869 whole entry): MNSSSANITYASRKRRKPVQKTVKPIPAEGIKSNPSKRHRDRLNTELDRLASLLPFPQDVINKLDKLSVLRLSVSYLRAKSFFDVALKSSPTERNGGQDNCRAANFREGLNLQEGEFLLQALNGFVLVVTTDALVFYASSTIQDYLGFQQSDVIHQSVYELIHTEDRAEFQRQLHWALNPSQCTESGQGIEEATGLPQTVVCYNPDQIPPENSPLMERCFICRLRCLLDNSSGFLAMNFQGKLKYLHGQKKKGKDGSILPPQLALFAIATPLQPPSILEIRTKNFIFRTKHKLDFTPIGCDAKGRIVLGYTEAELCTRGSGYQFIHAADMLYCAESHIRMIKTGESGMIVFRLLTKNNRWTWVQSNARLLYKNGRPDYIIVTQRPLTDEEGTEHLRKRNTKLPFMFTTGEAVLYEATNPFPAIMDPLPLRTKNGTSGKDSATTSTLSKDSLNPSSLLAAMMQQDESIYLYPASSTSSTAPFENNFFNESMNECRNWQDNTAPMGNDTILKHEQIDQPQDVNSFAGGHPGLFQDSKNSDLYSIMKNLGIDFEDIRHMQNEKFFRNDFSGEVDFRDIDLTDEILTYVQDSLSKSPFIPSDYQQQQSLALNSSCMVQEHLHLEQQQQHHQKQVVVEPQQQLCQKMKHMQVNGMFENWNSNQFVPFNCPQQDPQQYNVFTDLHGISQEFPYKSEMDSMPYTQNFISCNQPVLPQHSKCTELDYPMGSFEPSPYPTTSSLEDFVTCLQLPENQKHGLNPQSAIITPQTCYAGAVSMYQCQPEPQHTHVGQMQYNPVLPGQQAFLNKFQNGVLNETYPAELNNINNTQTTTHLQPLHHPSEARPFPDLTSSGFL

[12] = biological target: Mitogen-activated protein kinase 10 (Homo sapiens, UniProt P53779); test: Dose response biochemical screening assay for inhibitors of c-Jun N-Terminal Kinase 3 (JNK3). [Related pubchem assays: 746 ]
Mitogen-activated protein kinase 10, sequence (P53779 whole entry): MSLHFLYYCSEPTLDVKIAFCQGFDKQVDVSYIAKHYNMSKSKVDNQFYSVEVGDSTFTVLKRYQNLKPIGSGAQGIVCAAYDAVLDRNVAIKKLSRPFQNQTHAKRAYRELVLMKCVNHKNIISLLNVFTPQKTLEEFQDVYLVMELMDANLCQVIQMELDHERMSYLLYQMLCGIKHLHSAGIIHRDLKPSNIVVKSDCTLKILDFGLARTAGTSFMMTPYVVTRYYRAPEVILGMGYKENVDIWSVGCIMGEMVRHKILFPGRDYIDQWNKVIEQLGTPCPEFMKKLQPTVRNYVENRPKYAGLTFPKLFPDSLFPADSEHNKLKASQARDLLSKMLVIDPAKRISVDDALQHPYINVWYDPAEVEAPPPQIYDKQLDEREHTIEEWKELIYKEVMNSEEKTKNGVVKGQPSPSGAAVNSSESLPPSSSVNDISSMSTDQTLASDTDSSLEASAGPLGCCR

[13] = M. tuberculosis growth inhibition, HTS (AID 449762); format: functional
[14] = biological target: Peroxisome proliferator-activated receptor gamma/Nuclear receptor corepressor 2 (Homo sapiens, UniProt P37231+Q9Y618); test: Counterscreen for NR2E3 inverse agonists: TR-FRET-based biochemical high throughput dose response assay to identify inverse agonists of the interaction between peroxisome proliferator-activated receptor gamma (PPARg) and nuclear receptor co-repressor 2 (NCOR2).; format: functional
Peroxisome proliferator-activated receptor gamma/Nuclear receptor corepressor 2, sequence (P37231 whole entry): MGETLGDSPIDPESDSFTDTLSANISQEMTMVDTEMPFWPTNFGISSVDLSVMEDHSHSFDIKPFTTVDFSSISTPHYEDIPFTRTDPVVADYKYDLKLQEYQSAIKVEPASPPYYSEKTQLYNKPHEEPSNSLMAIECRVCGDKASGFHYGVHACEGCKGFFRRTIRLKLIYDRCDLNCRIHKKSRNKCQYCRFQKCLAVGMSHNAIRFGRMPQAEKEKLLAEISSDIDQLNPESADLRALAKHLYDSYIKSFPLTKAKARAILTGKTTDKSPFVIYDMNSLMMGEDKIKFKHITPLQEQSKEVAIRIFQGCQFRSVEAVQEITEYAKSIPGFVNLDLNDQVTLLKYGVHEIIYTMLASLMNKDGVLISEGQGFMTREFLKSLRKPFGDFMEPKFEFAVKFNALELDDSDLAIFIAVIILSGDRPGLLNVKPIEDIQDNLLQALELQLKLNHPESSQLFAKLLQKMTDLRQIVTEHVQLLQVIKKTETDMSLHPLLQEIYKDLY
Peroxisome proliferator-activated receptor gamma/Nuclear receptor corepressor 2, sequence (Q9Y618 whole entry): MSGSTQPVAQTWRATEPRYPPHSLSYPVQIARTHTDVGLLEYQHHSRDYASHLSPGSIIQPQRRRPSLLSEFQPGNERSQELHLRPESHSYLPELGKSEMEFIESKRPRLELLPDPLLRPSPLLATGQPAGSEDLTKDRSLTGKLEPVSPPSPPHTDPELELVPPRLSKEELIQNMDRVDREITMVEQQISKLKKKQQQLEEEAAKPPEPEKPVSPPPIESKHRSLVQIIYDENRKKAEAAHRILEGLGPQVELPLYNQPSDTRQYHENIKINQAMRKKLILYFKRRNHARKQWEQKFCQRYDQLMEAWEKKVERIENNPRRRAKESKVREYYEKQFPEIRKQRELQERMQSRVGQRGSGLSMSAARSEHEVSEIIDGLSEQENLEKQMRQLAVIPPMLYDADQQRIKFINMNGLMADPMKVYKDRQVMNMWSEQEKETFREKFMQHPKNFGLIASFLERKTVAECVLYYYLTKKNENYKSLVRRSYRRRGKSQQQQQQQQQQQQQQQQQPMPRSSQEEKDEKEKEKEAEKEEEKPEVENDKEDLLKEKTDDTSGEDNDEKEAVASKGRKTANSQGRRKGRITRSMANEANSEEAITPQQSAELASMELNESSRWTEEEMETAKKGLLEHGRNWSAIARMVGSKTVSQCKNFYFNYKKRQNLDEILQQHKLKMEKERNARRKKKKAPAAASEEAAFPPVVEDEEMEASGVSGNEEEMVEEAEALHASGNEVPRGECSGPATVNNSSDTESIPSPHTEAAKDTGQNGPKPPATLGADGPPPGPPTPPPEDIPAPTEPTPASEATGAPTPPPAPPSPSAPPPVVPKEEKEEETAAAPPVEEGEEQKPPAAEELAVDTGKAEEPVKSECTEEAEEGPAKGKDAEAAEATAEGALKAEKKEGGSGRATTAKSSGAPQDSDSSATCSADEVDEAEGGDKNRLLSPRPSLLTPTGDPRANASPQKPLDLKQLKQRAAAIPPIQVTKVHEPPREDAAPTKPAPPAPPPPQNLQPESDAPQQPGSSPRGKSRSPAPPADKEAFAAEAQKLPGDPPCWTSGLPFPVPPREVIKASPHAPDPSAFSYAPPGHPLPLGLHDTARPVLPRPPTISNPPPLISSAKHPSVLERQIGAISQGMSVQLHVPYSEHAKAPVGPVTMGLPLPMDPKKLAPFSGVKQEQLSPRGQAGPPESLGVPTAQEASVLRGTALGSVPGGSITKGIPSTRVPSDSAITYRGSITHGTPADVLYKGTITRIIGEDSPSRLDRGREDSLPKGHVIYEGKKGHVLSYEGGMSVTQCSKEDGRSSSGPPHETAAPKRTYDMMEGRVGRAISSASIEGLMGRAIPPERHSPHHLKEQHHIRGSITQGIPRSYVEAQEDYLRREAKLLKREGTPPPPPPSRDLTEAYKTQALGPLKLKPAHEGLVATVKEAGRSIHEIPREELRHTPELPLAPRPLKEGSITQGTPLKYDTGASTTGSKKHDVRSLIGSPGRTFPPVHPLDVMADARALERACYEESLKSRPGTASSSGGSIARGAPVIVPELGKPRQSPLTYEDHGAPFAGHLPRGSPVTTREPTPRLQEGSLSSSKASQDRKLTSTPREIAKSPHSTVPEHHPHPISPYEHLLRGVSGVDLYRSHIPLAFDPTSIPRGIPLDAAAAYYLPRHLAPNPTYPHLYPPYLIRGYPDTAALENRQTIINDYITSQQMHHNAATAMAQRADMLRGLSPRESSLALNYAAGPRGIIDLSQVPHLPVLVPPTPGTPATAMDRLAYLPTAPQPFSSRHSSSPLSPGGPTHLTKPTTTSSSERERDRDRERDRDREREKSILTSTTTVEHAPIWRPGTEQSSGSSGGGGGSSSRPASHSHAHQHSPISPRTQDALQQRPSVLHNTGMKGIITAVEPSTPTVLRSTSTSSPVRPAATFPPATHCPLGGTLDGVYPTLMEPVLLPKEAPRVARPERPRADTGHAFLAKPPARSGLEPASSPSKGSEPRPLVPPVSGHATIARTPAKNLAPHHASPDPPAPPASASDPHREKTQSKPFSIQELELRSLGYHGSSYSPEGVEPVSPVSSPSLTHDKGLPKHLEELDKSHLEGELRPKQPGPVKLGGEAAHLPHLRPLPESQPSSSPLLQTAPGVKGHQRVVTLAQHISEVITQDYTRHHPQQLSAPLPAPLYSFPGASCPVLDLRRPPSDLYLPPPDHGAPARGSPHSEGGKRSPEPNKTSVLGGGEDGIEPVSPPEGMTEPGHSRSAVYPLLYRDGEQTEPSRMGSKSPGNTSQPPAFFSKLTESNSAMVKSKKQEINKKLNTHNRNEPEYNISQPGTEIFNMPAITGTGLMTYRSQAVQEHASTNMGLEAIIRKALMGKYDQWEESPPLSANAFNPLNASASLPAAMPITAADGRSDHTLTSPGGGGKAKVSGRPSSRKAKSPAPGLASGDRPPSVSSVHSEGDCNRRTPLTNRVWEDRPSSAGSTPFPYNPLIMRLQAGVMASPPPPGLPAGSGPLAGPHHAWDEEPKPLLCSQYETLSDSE

[15] = biological target: Photoreceptor-specific nuclear receptor (Homo sapiens, UniProt Q9Y5X4); test: ligands suppressing NR2E3 nuclear receptor activity – biochemical, TR-FRET, dose response (AID 463256); format: functional
[16] = Luminescence Cell-Based Dose Confirmation HTS to Identify Activators of 5'UTR Stem-Loop Driven Alpha-Synuclein mRNA Translation in H4 Neuroglioblastoma Cells. [Related pubchem assays: 1829 (Project Summary), 1814 (Primary HTS)]; format: functional
[17] = Luminescence Cell-Based Dose Response HTS to Identify Activators of Luciferase Translation or Activity in H4 […] Cells. [Related pubchem assays: 1829 (Project Summary), 1814 (Primary HTS)]; format: functional
[18] = tested on: H4; test: Luminescence Cell-Based Dose Response HTS to Identify Activators of 5'UTR Stem-Loop Driven Prion Protein mRNA Translation in H4 Neuroglioblastoma Cells. [Related pubchem assays: 1829 (Project Summary), 1814 (Primary HTS)]; format: functional; conditions: Homo sapiens
[19] = biological target: Heat shock protein HSP 90-alpha (Homo sapiens, UniProt P07900); test: Luminescence-based dose response biochemical high throughput screening assay for inhibitors of the Heat Shock Protein 90 (HSP90). [Related pubchem assays: 1831 (Summary AID.), 1846 (Confirmation screen.), 1789 (Primary screen.)]
[20] = tested on: Vero; test: inhibition of WNV-induced cytopathic effect – cell-based, CPE readout (AID 1621); format: functional; conditions: Chlorocebus sabaeus
[21] = IC50 of insulin release inhibition, rat insulinoma INS-1E line, 5 mM glucose, cell-based (AID 1117331); format: functional
[22] = cells; format: functional, cell-based; conditions: INS-1E
[23] = biological target: Cytochrome P450 2C19 (Homo sapiens, UniProt P33261); test: qHTS Assay for Inhibitors and Substrates of Cytochrome P450 2C19. [Related pubchem assays: 410 ]; format: ADME; conditions: read-out: Potency
[24] = viability loss in HEK293T cells – cell-based, ATP luminescence, dry powder, set 3, cytotoxicity control, dose response (AID 743131); format: functional; conditions: HEK293
[25] = viability loss in HepG2 hepatoma cells – cell-based, ATP luminescence, dry powder, set 2, cytotoxicity control, dose response (AID 743129); format: functional
[26] = CellTiter-Glo luminescence survival assay, SW480 colon tumor line, concentration-response curve, half-maximal inhibitory concentration (AID 1117338); format: functional
[27] = RKO cell viability reduction, dose response, CellTiter-Glo luminescence (AID 1117322); format: functional
[28] = SNU-C1 cell viability reduction, dose response, CellTiter-Glo luminescence (AID 1117323); format: functional, cell-based
[29] = cytotoxicity toward Colo320 cells – cell-based, CellTiter-Glo luminescence, IC50, dose response (AID 1117334); format: functional; conditions: COLO 320
[30] = cytotoxicity toward HT-29 cells – cell-based, CellTiter-Glo luminescence, IC50, dose response (AID 1117330); format: functional
[31] = Reduced DLD-1 viability, concentration-response, CellTiter-Glo luminescence (AID 1117352); format: functional
[32] = HCT116 cell viability decrease, GSK3B pretreatment – CellTiter-Glo, IC50, dose response (AID 1117339); format: functional; conditions: HCT-116
[33] = toxicity to HepG2 liver cells – cell-based, plate reader, dry powder, set 6, cytotoxicity control, dose response (AID 743311); format: functional
[34] = toxicity to A549 lung cells – cell-based, plate reader, dry powder, set 6, cytotoxicity control, dose response (AID 743312); format: functional
[35] = cells; conditions: HEK293

CN1CCN(C2=C(Cl)C(=O)c3ccccc3C2=O)CC1
IC50 [1]: 2.02 µM (active) | IC50 [2]: 58.9 µM (inactive) | CC50 [3]: 11.8 µM (active) | IC50 [4]: 6.33 µM (active) | AC50 [5]: 1.03 µM (active) | AC50 [6]: > 100 µM (inactive) | AC50 [7]: 0.108 µM (active) | IC50 [8]: 0.581 µM (active) | CC50 [9]: 6.22 µM (active) | IC50 [10]: > 100 µM (active)

COc1cc2nc(-c3cccc(F)c3)cc(O)c2cc1OC
EC50 [11]: 5.44 µM (active)

CCOC(=O)c1ccc2[nH]c3c(c2c1)CCCCC3=O
IC50 [12]: > 93.1 µM (not active)

CC(=O)CCSc1ncnc2sc(-c3ccccc3)cc12
IC50 [13]: > 100 µM (active)

CCN(CC)S(=O)(=O)c1ccc(OC)c(NC(=O)COc2ccc3c(C)cc(=O)oc3c2)c1
IC50 [14]: 2.14 µM (active) | IC50 [15]: 2.35 µM (active)

Cc1cc(NO)nc(-c2ccc(Br)cc2)n1
EC50 [16]: 0.405 µM (active) | EC50 [17]: 22.8 µM (active) | EC50 [18]: 40.2 µM (active) | IC50 [19]: 0.728 µM (active)

Cc1cc(C)cc(SCc2noc(C(=O)NCCN(C)C)c2C(=O)NCCN(C)C)c1
IC50 [20]: 26.9 µM (active)

Nc1c2c(nc3c1CCC3)CCCC2
IC50 [21]: 11.7 µM (inactive) | IC50 [22]: > 33.3 µM (inactive)

O=c1cc(-c2cccc(O)c2)oc2c(O)c(O)ccc12
AC50 [23]: 15.8 µM (inconclusive)

CCOC(=O)c1c(NC(=O)CN2CCN(C)CC2)sc(C)c1-c1ccc(C)cc1
AC50 [24]: 1.74 µM (active) | AC50 [25]: 16.7 µM (active)

CCc1cccc(N(C)C(=N)Nc2cccc3ccccc23)c1 [APTIGANEL HYDROCHLORIDE]
IC50 [26]: > 20 µM (inactive) | IC50 [27]: > 20 µM (inactive) | IC50 [28]: > 20 µM (inactive) | IC50 [29]: > 20 µM (inactive) | IC50 [30]: > 20 µM (inactive) | IC50 [31]: > 20 µM (inactive) | IC50 [32]: > 20 µM (inactive)

NCC(=O)Nc1ccc(-n2nc(C(F)(F)F)cc2-c2ccc3c(ccc4ccccc43)c2)cc1 [AR-12]
AC50 [33]: 8.29 µM (active) | AC50 [34]: 18.3 µM (active) | AC50 [35]: 4.39 µM (active)
